From patent publication US6696600B2, “L-DOPA ethyl ester salts and uses thereof” (priority 2001, dated 2004)
Like-named read-outs stand apart in the source and are kept apart here.

Key:
[1] = Exposure of hygroscopic salts to atmospheric air
[2] = pKa and delta pKa (pKa LDEE − pKa acid); assay type: physicochemical
Description: Preparation and selection of salts that have different physical properties are detailed in the literature. […]. PKa of LDEE free base is known to be 7.24 [8]. […]. This fact is illustrated in Example 1 below, in which the crystallization of LDEE palmitate was attempted. After dissolution of LDEE base and palmitic acid in absolute alcohol, the solution was cooled, and instead of forming a new salt, pure palmitic acid was crystallized out, and no solid crystalline salt was formed. […]

[3] = Hygroscopicity test: weight gain of solid sample in humidity chamber at RH=80%; assay type: physicochemical; settings: for hygroscopicity (in words): RH=80% screening; for weight gain in hygroscopicity test / appearance after exposure in a humidity chamber: RH=80%; for weight gain in hygroscopicity test: T=20±2° C., during 24 hrs
Description: There are many methods of quantitative evaluation of hygroscopicity of solid products without measuring the hygroscopic point. The most widely used method is based on measuring the weight gain of a solid sample in a humidity chamber. […] This method was used for screening the hygroscopicity of several LDEE salts. It also provides a comparison of the hygroscopic properties of different solids by comparison of water absorption rates under the same conditions.

[4] = Stability of dihydrates, impurity profile (HPLC), 8 days at 65° C.; assay type: physicochemical
Protocol: The stability of succinate dihydrate and fumarate dihydrate were investigated under the following test conditions: 8 days at 65° C. in glass vial (air) (Table 1).

[5] = pH of water solution; assay type: physicochemical
[6] = background statement; cited from earlier work
[7] = background, from references; cited from earlier work
[8] = cited from earlier work; for pKa (first value): acid or acid salt used for salt preparation
[9] = End, 8 days at 65° C. in glass vial (air)

| Compound | delta pKa pKaLDEE − pKaacid (first value) [2] | Color stability at RH = 80% ([3]; RH = 80%) [h] | Mean water absorption rate at RH = 80% ([3]; RH = 80%) [mol/kg/h] | Material appearance after 24 hrs at RH = 80% ([3]; RH = 80%) | Weight gain during 24 hrs at RH = 80%,% ([3]; RH = 80%) [%] | hygroscopicity (in words) [3] | weight gain in hygroscopicity test [3] [%] | pH of water solution [5] | pKa (first value) [8] | further results |
| --- | --- | --- | --- | --- | --- | --- | --- | --- | --- | --- |
| CC(=O)O.CCOC(=O)[C@@H](N)Cc1ccc(O)c(O)c1 [Example 2, LDEE Acetate] | 2.48 | 1.5 | 0.155 | Semi-solid melt | 6.7 | hygroscopic | 6.7 | – | – | behaviour in atmospheric air (in words) [1]: deliquescent |
| CCOC(=O)[C@@H](N)Cc1ccc(O)c(O)c1.CS(=O)(=O)O [Example 3, LDEE Mesylate] | 6.04 | >24 | 0.405 | Syrup | 17.5 | hygroscopic | 17.5 | – | – | behaviour in atmospheric air (in words) [1]: deliquescent |
| CCOC(=O)[C@@H](N)Cc1ccc(O)c(O)c1.CCOC(=O)[C@@H](N)Cc1ccc(O)c(O)c1.O.O.O=C(O)CCC(=O)O [Example 23, LDEE Succinate Dihydrate] | 3.08 | >72 | 0.006 | White flowable powder | 0.27 | non-hygroscopic | 0.27 | 5.8 | – | Assay LDEE (%) [4, 9]: 73.46%; L-DOPA (%) [4, 9]: 0.56%; Unknown RRT = 0.83 (%) [4, 9]: 0.03%; cyc.L-DOPA (%) [4, 9]: 0.03%; Assay LDEE (%) ([4]; Start): 74.1%; L-DOPA (%) ([4]; Start): 0.1%; delta pKa pKaLDEE − pKaacid (second value) [2]: 1.63; water absorption at RH=80% (in words) ([3]; RH = 80%): did not absorb water; appearance after exposure in a humidity chamber ([3]; about 72 hrs): white flowable powder |
| CCOC(=O)[C@@H](N)Cc1ccc(O)c(O)c1.CCOC(=O)[C@@H](N)Cc1ccc(O)c(O)c1.O.O.O=C(O)/C=C/C(=O)O [Example 25, LDEE Fumarate Dihydrate] | 4.21 | >48 | 0.0004 | White flowable powder | 0.04 | non-hygroscopic | 0.04 | 5.5 | – | Assay LDEE (%) [4, 9]: 75.0%; L-DOPA (%) [4, 9]: 0.27%; LD-LDEE (%) [4, 9]: 0.03%; Unknown RRT = 0.72 (%) [4, 9]: 0.09%; cyc.L-DOPA (%) [4, 9]: L.T. 0.03%; Assay LDEE (%) ([4]; Start): 75.0%; L-DOPA (%) ([4]; Start): 0.11%; LD-LDEE (%) ([4]; Start): L.T. 0.03%; delta pKa pKaLDEE − pKaacid (second value) [2]: 2.7; water absorption at RH=80% (in words) ([3]; RH = 80%): did not absorb water; appearance after exposure in a humidity chamber ([3]; more than 48 hrs): white flowable powder |
| CCO.CCOC(=O)[C@@H](N)Cc1ccc(O)c(O)c1.O=C(O)/C=C\C(=O)O [Example 28, LDEE Maleate Ethanolate] | 5.35 | 3 | 0.07 | Yellowish syrup | 3.1 | hygroscopic | 3.1 | 6.4 | – | delta pKa pKaLDEE − pKaacid (second value) [2]: 1.02 |
| CCOC(=O)[C@@H](N)Cc1ccc(O)c(O)c1 [LDEE, L-DOPA ethyl ester] | 0 | – | 0.005 | White flowable powder | 0.24 | not a hygroscopic material | – | 8.2 | – | aqueous solution pH [6]: 8.2; Color stability at RH = 80%, hrs ([3]; RH = 80%): ˜50 hrs; hygroscopicity (in words) [7]: non-hygroscopic |
| CCCCCCCCCCCCCC(=O)O [Myristic acid] | – | – | – | – | – | – | – | – | ˜4.8 | – |
| CCCCCCCC/C=C\CCCCCCCC(=O)O [Oleic acid] | – | – | – | – | – | – | – | – | ˜4.8 | – |
| CCCCCCCCCCCCCCCC(=O)O [Palmitic acid] | – | – | – | – | – | – | – | – | ˜4.8 | DpKa [2]: 2.4; pKa [8]: 4.8 |
| O=C(O)CCCc1ccccc1 [Phenyl Butyric acid] | – | – | – | – | – | – | – | – | 4.76 | – |
| CCCCCCCCCCCCCCCCCC(=O)O [Stearic acid] | – | – | – | – | – | – | – | – | ˜4.8 | – |
| CCOC(=O)[C@@H](N)Cc1ccc(O)c(O)c1.Cl [hydrochloride salt of LDEE] | – | – | – | – | – | – | – | – | – | hygroscopicity (in words) [7]: extremely hygroscopic |
| LDEE Phenylbutyrate [Example 10] | 2.48 | 1.0 | 0.023 | Semi-solid melt | 1.0 | hygroscopic | 1.03 | 5.5-6.0 | – | – |
